Measured values published in patent publication US10688031B2, “Low-toxicity sophorolipid-containing composition and use therefor” (Saraya Co., Ltd., priority 2013, dated 2020).

Legend:
HeLa cells = assay: Cytotoxicity test using HeLa cells (MTT assay); format: cell-based, human; conditions: 48 hours of treatment
Procedure: HeLa cells (Kurabo Industries, Ltd.) were seeded in a 96-well plate to a concentration of 2×10^4 cells/well and cultured in Dulbecco's Modified Eagle Medium (produced by Nissui Pharmaceutical Co., Ltd.) containing 10% NCS (Newborn Calf Serum: produced by Invitrogen), non-essential amino acids, 58 μg/ml L-glutamic acid, 60 μg/ml kanamycin at 37° C., 5% CO2 for 72 hours. The medium was replaced with media containing the samples. After 48 hours, each medium was replaced with a medium containing 1 mg/ml MTT (3-(4,5-dimethyl-2-thiazolyl)-2,5-diphenyl-2H-tetrazolium bromide). After the treatment was allowed to proceed for 2 hours, formazan dye was extracted with isopropanol. Absorbance at a wavelength of 570 nm was measured. The viability % of the cells was calculated according to the following Formula.
The cell viability was calculated from the above MTT assay, and the cell lethal concentration (IC50) was determined from the obtained cell viability.

[1] = Critical micelle concentration (CMC) and surface tension-reducing ability, Wilhelmy method; format: physicochemical
Procedure: The critical micelle concentration (CMC) and surface tension-reducing ability were measured according to the Wilhelmy method. The measurements were performed at pH 7 at 20° C. using a CBVP-Z automatic surface tensiometer (produced by Kyowa Interface Science Co., Ltd.). For pH adjustment, an aqueous sodium hydroxide solution or an aqueous hydrochloric acid solution was used.
The critical micelle concentration (CMC) and surface tension-reducing ability of these SL-containing compositions were measured, and their performance as surfactants (wettability, solubilizing power, detergency, and foamability) was evaluated. The critical micelle concentration (CMC) and surface tension-reducing ability were measured in the same manner as in Test Example 2 according to the Wilhelmy method. Specifically, the measurement was performed at pH 7 at 20° C. using a CBVP-Z automatic surface tensiometer (produced by Kyowa Interface Science Co., Ltd.).

| SMILES | cell lethal concentration (IC50) (HeLa cells) [ppm] | CMC ([1]; Table 5, repeated from Test Example 2) [ppm] | Critical micelle concentration (CMC) ([1]; pH 7, 20° C., Table 4) [ppm] | Surface tension-reducing ability ([1]; pH 7, 20° C., Table 4) [mN/m] |
| --- | --- | --- | --- | --- |
| CCCCCCCC/C=C\CCCCCCCC(=O)O [oleic acid] | 300 |  |  |  |
| CCCCCCCCCCCCOS(=O)(=O)[O-].[Na+] [SLS, Sodium Lauryl Sulfate] | <10 | 300 | 300 | 34.0 |
